Reference: patent US12195479B2, “Five- and six-membered compound, and preparation method therefor and pharmaceutical composition and use thereof” (HANGZHOU POLYMED BIOPHARMACEUTICALS, INC., priority 2021, dated 2025)

Experiments:
[1] = target: T1, FLT3 kinase (Homo sapiens, UniProt P36888); assay: Kinase inhibition, fluorescence microfluidic mobility shift assay (FLT3); assay type: biochemical; conditions: substrate peptide FAM-P2 3 μM, ATP 97 μM; one hour at 28° C.; assayed in duplicate
T1 sequence (P36888 564-993): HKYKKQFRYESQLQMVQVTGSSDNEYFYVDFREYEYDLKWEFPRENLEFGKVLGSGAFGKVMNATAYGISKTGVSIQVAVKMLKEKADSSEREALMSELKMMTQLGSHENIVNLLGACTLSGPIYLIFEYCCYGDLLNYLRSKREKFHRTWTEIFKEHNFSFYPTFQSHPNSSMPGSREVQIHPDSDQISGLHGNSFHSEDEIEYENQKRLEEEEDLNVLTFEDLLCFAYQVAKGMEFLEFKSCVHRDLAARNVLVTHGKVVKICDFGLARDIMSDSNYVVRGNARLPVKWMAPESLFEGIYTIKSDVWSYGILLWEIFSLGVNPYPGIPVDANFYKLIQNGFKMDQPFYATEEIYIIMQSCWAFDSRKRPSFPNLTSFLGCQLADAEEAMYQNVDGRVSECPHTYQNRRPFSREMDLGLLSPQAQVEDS
Protocol: Based on the experimental method of fluorescence microfluidic mobility shift assay, the IC50 value of the compound for competitive binding of ATP to kinases IRAK4 and FLT3 was determined. The initial detection concentration of the compound was 10 μM, which was diluted to 0.38 nM with a 4-fold gradient and assayed in duplicate. In this case, commercially available staurosporine was the standard control for the assay.
Information on reagents and consumables is as follows: • IRAK4 kinase (Carna, Cat. No. 09-145, Lot. No. 14CBS-0020 H) • FLT3 kinase (Carna, Cat. No. 08-154, Lot. No. 07CBS-2350) • Substrate peptide FAM-P2 (GL Biochem, Cat. No. 112394, Lot. No. P131014-XP112394) • Substrate peptide FAM-P8 (GL Biochem, Cat. No. 112396, Lot. No. P170731-SY112396) • ATP (adenosine triphosphate, Sigma, Cat. No. A7699-1G, CAS No. 987-65-5) • DMSO (dimethyl sulfoxide, Sigma, Cat. No. D2650) • EDTA (ethylenediaminetetraacetic acid, Sigma, Cat. No. E5134, CAS No. 60-00-4) • Staurosporine (Selleckchem, Cat. No. 51421) • HEPES (4-(2-Hydroxyethyl)-1-piperazineethanesulfonic acid, Gibco, Cat. No. 15630-080) • Brij-35 solution (Polyoxyethylene lauryl ether, Sigma, Cat. No. B41840-100 mL) • DTT (dithiothreitol, Sigma, Cat. No. D0632-20G) • 0.2% Coating Reagent #3 (0.2% coating reagent, Perkin Elmer, Cat. No. 760050) • 96-well plate (Corning, Cat. No. 3365) • 384-well plate (Corning, Cat. No. 3573) Experimental operation method: • 1) FLT3 and IRAK4 kinases were dissolved in the kinase buffer (50 mM HEPES pH 7.5, 10 mM MgCl2, 2 mM DTT, and 0.01% Brij-35) at final concentrations of 0.9 nM, 30 nM, and 6 nM, respectively. • 2) The substrate peptide FAM-P2 and the substrate peptide FAM-P8, together with ATP, were dissolved in the above kinase buffer, respectively, where the final concentrations of the substrate peptide FAM-P2 and ATP for the determination of FLT3 were 3 μM and 97 μM, respectively; and the final concentrations of the substrate peptide FAM-P8 and ATP for the determination of IRAK4 were 3 μM and 10 μM, respectively. • 3) Compound dilution: The compound was first diluted to 50 μM, and then diluted downward with DMSO in a 4-fold gradient. In this case, the solution without compound and kinase served as the blank control, corresponding to the “minimum value” shown below; the solution without compound but containing kinase, adenosine triphosphate, DMSO, and the buffer served as the positive control, corresponding to the “maximum value” shown below. • 4) Kinase reaction and termination: 10 μL of the kinase buffer was added to a 384-well plate containing 5 μL of the compound to be tested, and the mixture was incubated for 10 minutes at room temperature; another 10 μL, of buffer containing the substrate peptide and adenosine triphosphate was added to the 384-well plate, and after incubation for one hour at 28° C., 25 μL, of termination solution (100 mM HEPES pH 7.5, 50 mM EDTA, 0.2% Coating Reagent #3, and 0.015% Brij-35) was added to each well for reaction termination. • 5) Data reading: CaliperEZ Reader II instrument was used to read the conversion rate data. Setting conditions: downstream voltage as −500 V, upstream voltage as −2250 V, base pressure as −0.5 PSI, and screening pressure as −1.2 PSI. • 6) Data calculation: the conversion rate data was copied from CaliperEZ Reader II, and the conversion rate was converted into inhibition rate data.

[2] = target: T2, IRAK4 kinase (Homo sapiens, UniProt Q9NWZ3); assay: Kinase inhibition, fluorescence microfluidic mobility shift assay (IRAK4); assay type: biochemical; conditions: substrate peptide FAM-P8 3 μM, ATP 10 μM; one hour at 28° C.; assayed in duplicate
T2 sequence (Q9NWZ3 1-460): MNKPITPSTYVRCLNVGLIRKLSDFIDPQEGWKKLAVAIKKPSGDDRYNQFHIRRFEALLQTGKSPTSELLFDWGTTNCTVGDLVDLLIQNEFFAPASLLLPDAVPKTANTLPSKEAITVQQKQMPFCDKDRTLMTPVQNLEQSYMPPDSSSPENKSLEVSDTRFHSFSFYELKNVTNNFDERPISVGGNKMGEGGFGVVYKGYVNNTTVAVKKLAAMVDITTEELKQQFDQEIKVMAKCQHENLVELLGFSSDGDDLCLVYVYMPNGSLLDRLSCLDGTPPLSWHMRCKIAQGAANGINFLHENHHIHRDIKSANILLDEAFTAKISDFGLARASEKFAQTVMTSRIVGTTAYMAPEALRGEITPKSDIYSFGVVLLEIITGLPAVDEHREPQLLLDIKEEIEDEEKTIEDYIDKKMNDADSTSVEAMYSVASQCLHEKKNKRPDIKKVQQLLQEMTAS

[3] = tested on: MV4-11 cells; assay: Cytotoxicity against MV4-11 cells (CellTiter-Glo); assay type: cell-based; conditions: Homo sapiens, incubated for 72 hours, CellTiter-Glo chemiluminescence
Protocol: Determination of the IC50 Value of the Compound's Cytotoxicity Against MV4-11 Cells
MV-4-11 cells were cultured with IMDM complete medium (IMDM+10% fetal bovine serum+1% Penicillin-Streptomycin, a mixture of penicillin-streptomycin). • 2. MV-4-11 cells in good condition were collected and washed twice with DPBS ([…] phosphate buffered saline solution). • 3. MV-4-11 cells were resuspended with IMDM complete medium, the cell density was adjusted to 1.11×10^6 cells/mL, and the MV-4-11 cells were added to 96-well plates at 90 μL per well. • 4. A compound solution with 10-fold concentration was prepared with IMDM complete medium, 10 μL of the compound solution with 10-fold concentration was added to the cells in the 96-well plate, mixed well, and then the 96-well plate was placed in a 5% CO2 incubator at 37° C. and incubated for 72 hours. • 5. After the incubation, the 96-well plate was taken out and equilibrated for 30 minutes at room temperature. Then 100 μL of CellTiter Glo reagent was added to each well and mixed on a horizontal shaker for 2 minutes. • 6. The 96-well plate was removed, equilibrated at room temperature for 10 minutes, and the chemiluminescence value was detected on a microplate reader.

SMILES | IC50 [1] | IC50 [2] | IC50 [3]
CC(C)(O)CCc1cc2cc(NC(=O)c3coc(-c4ccnc(C(F)(F)F)c4)n3)c(C(C)(C)O)cn2n1 [II-92] | 15.5 nM | 4.86 nM | 63.2 nM
CC(C)(O)CCn1cc2cc(NC(=O)c3coc(-c4ccnc(C(F)(F)F)c4)n3)c(C(C)(C)O)cc2n1 [II-93] | 2.2 nM | 2.7 nM | 21 nM
COc1cc2nn(C3CCNCC3)cc2cc1NC(=O)c1coc(-c2ccnc(C(F)F)c2)n1 [II-94C] | 0.44 nM | 8 nM | 10.6 nM
COc1cc2nn(C3CCS(=N)(=O)CC3)cc2cc1NC(=O)c1coc(-c2ccnc(C)c2)n1 (stereo not drawn) [II-95] | 0.47 nM | 12 nM | 18 nM
COc1cc2nn(C3CCS(=O)(=O)CC3)cc2cc1NC(=O)c1coc(-c2ccnc(C)c2)n1 [II-96] | 0.22 nM | 3.7 nM | 6.5 nM
Cc1cc(-c2nc(C(=O)Nc3cc4cn(CCN5CCC(F)(F)C5)nc4cc3C(C)(C)O)co2)ccn1 [II-97] | 0.53 nM | 6.9 nM | 13.7 nM
Cc1cc(-c2nc(C(=O)Nc3cc4cn(CCC(C)(C)O)nc4cc3N3CCC(F)(F)C3)co2)ccn1 [II-98] | 0.44 nM | 5.2 nM | 0.3 nM
Cc1cc(-c2nc(C(=O)Nc3cc4cn(C5CCC6(CNC6)C5)nc4cc3C(C)(C)O)co2)ccn1 (stereo not drawn) [II-99] | 0.26 nM | 5.5 nM | 10.9 nM
Cc1cc(-c2nc(C(=O)Nc3cc4cn(C5CC6CCC(C5)N6)nc4cc3C(C)(C)O)co2)ccn1 (stereo not drawn) [II-100] | 0.62 nM | 22 nM | 9 nM
Cc1cc(-c2nc(C(=O)Nc3cc4cn(C5CC6CCC(C5)N6C)nc4cc3C(C)(C)O)co2)ccn1 (stereo not drawn) [II-101] | 0.48 nM | 22 nM | 7 nM
Cc1cc(-c2nc(C(=O)Nc3cc4cn(CCC(C)(C)O)nc4cc3N3CCC(O)C3)co2)ccn1 (stereo not drawn) [II-102] | 0.85 nM | 21 nM | 8 nM
Cc1cc(-c2nc(C(=O)Nc3cc4cn(C5CCOC(C)(C)C5)nc4cc3C(C)(C)O)co2)ccn1 (stereo not drawn) [II-103] | 0.35 nM | 3.2 nM | 3 nM
CC(C)c1cc(-c2nc(C(=O)Nc3cc4cn(CCC(C)(C)O)nc4cc3C(C)(C)O)co2)ccn1 [II-104] | 2.31 nM | 5.3 nM | 21 nM
CC(C)(O)CCn1cc2cc(NC(=O)c3ccn(-c4ccnc(C(F)(F)F)c4)n3)c(C(C)(C)O)cc2n1 [II-105] | 39 nM | 2.63 nM | 
Cc1cc(-c2nc(C(=O)Nc3cc4cn(C5CCN(C6COC6)CC5)nc4cc3C(C)(C)O)co2)ccn1 [II-106] | 0.41 nM | 3.3 nM | 8 nM
Cc1cc(-c2nc(C(=O)Nc3cc4cn(CC5(F)CN(C(=O)OC(C)(C)C)C5)nc4cc3C(C)(C)O)co2)ccn1 [II-107] | 0.73 nM | 9.22 nM | 
Cc1cc(-c2nc(C(=O)Nc3cc4cn(CCN5CC6CC5CO6)nc4cc3C(C)(C)O)co2)ccn1 (stereo not drawn) [II-110] | 0.36 nM | 8.16 nM | 
Cc1cc(-c2nc(C(=O)Nc3cc4cn(C5CC(C)(C)OC(C)(C)C5)nc4cc3C(C)(C)O)co2)ccn1 [II-116] |  | 7.54 nM | 27.3 nM
Cc1cc(-n2ccc(C(=O)Nc3cc4oc(N5CCOCC5)nc4nc3N3CCC(O)C3)n2)ccn1 (stereo not drawn) [II-123] |  | 122 nM | 
Cc1cc(-c2nc(C(=O)Nc3cc4oc(N5CC6CC5CO6)nc4nc3N3CCC(O)C3)co2)ccn1 (stereo not drawn) [II-125] |  | 82 nM | 
Cc1cc(-c2nc(C(=O)Nc3cc4oc(N5CCN(CC(F)(F)F)CC5)nc4nc3N3CCC(O)C3)co2)ccn1 (stereo not drawn) [II-128] | 13 nM | 44 nM | 
Cc1cc(-c2nc(C(=O)Nc3cc4oc(N5CCC(C(F)(F)F)CC5)nc4nc3N3CCC(O)C3)co2)ccn1 (stereo not drawn) [II-130] | 8.9 nM | 26 nM | 
CC(C)(O)CCn1cc2cc(NC(=O)c3coc(-c4ccnc(C(F)(F)F)c4)n3)c(C(C)(C)O)nc2n1 [II-131] |  | 20 nM | 
